Test results as given in publication PMC3733634, “A Computational Module Assembled from Different Protease Family Motifs Identifies PI PLC from Bacillus cereus as a Putative Prolyl Peptidase with a Serine Protease Scaffold” (PLoS ONE, 2013).
Counter-ions that a name gives are not always drawn.

Key:
[1] = molecular target: phosphoinositide-specific phospholipase C (PI-PLC) (Bacillus cereus, UniProt P14262); assay: inhibition of phospholipase activity of commercial PI-PLC on PI-containing large unilamellar vesicles (turbidity/aggregation assay); assay type: biochemical
phosphoinositide-specific phospholipase C (PI-PLC), sequence (P14262 32-329 limits assumed): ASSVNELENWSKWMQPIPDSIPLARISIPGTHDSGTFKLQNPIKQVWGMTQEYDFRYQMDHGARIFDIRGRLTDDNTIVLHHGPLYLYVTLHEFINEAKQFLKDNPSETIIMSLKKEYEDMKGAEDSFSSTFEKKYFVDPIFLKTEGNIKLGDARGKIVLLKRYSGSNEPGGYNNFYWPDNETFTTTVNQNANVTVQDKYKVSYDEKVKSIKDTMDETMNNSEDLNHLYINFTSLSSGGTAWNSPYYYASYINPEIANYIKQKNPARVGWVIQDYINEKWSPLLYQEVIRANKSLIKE

[2] = molecular target: T1, cold-active Vibrio alkaline phosphatase (VAP) (Vibrio sp. G15-21, UniProt Q93P54); assay: inhibition of native alkaline phosphatase activity at pH […] (n = […]); assay type: biochemical
T1 sequence (Q93P54 20-521): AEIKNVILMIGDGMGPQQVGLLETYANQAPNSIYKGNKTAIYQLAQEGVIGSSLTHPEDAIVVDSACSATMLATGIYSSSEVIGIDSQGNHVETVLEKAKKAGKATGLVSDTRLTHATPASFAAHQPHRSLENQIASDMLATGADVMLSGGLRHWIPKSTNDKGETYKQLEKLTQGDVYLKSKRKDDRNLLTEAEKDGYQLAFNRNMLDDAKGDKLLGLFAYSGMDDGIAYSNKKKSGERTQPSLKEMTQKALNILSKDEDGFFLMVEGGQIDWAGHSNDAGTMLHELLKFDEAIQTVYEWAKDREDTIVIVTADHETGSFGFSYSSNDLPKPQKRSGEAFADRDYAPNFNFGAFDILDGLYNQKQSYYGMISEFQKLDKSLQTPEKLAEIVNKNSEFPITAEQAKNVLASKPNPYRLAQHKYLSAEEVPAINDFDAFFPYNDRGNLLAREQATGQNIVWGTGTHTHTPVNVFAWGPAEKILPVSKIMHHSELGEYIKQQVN

SMILES: NCCc1ccc(S(=O)(=O)F)cc1 [AEBSF, 4-(2-aminoethyl) benzenesulfonyl fluoride hydrochloride]
- IC50 [1]: 18 µM
- IC50 [2]: 350 µM
